Assay results as given in patent US8883782B2, “Spiro-tetracyclic ring compounds as beta-secretase modulators and methods of use” (Amgen Inc., priority 2010, dated 2014).

Legend:
[1] = target: Beta Secretase enzyme (BACE) (Homo sapiens, UniProt P56817); experiment: In vitro enzymatic BACE FRET (fluorescence resonance energy transfer) assay; format: biochemical; details: average IC50, enzyme assay; read-out: BACE 1 FRET assay
Outline: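 Buffer 0.05 M acetate pH 4.2, 10% DMSO final, 100 uM genapol (sub-CMC); start with 50 nM FRET substrate; 1 h incubation; Tris stop; fluorescence read.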

[2] = system: Aβ40 in conditioned medium of cells stably expressing Amyloid Precursor Protein (APP); experiment: In vitro BACE cell-based assay (Aβ40 in conditioned medium, sandwich ELISA); details: Homo sapiens, HEK293, average IC50, HEK cells; read-out: HEK cell assay
Outline: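 Step two: 10-point compound titration added, starting 100 μM or 10 μM, 0.1% DMSO. Step three: medium Aβ40 measured by ELISA, capture 3 h and detection 2 h at 4° C, TRF read.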

Beta Secretase enzyme (BACE), sequence (P56817 46-501, species assumed): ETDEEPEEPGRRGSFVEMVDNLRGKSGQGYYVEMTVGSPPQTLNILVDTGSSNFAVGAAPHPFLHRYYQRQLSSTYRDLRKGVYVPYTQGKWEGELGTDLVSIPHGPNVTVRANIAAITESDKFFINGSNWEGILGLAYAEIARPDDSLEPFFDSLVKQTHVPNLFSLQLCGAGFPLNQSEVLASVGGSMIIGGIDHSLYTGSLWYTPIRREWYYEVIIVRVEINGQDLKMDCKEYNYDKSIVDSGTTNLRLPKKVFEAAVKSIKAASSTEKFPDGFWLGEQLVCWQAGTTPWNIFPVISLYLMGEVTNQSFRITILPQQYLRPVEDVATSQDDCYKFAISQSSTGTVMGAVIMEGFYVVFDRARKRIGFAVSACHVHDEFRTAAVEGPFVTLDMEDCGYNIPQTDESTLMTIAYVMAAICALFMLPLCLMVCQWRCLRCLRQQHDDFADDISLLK

| Structure (SMILES) | IC50 [1] [nM] | IC50 [2] [nM] |
| --- | --- | --- |
| N#Cc1cccc(-c2ccc3c(c2)[C@@]2(COC(N)=N2)c2cc(N4CCC(F)(F)CC4)nc(F)c2O3)c1 [Example 923, 3-((5S)-2′-amino-3-(4,4-difluoro-1-piperidinyl)-1-fluorospiro[chromeno[2,3-c]pyridine-5,4′-[1,3]oxazol]-7-yl)benzonitrile] | 0.3 | 32 |
| N#Cc1cccc(-c2ccc3c(c2)[C@@]2(COC(N)=N2)c2cc(N4CC[C@H](F)C4)nc(F)c2O3)c1 [Example 924, 3-((5S)-2′-amino-1-fluoro-3-((3S)-3-fluoro-1-pyrrolidinyl)spiro[chromeno[2,3-c]pyridine-5,4′-[1,3]oxazol]-7-yl)benzonitrile] | 0.5 | 18 |
| CC#Cc1cncc(-c2ccc3c(c2)[C@@]2(COC(N)=N2)c2cc(Cl)nc(N4CCC(F)(F)C4)c2O3)c1 [Example 925, (5S)-3-chloro-1-(3,3-difluoro-1-pyrrolidinyl)-7-(5-(1-propyn-1-yl)-3-pyridinyl)spiro[chromeno[2,3-c]pyridine-5,4′-[1,3]oxazol]-2′-amine] | 24.6 | 547 |
| NC1=N[C@@]2(CO1)c1cc(-c3cncc(F)c3)ccc1Oc1c2cc(N2CC[C@H](F)C2)nc1F [Example 926, (5S)-1-fluoro-7-(5-fluoro-3-pyridinyl)-3-((3S)-3-fluoro-1-pyrrolidinyl)spiro[chromeno[2,3-c]pyridine-5,4′-[1,3]oxazol]-2′-amine] | 0.3 | 8 |
| NC1=N[C@@]2(CS1)c1cc(-c3cccnc3F)ccc1Oc1cnc(N3CC[C@@H](F)C3)cc12 [Example 929, (5S)-7-(2-fluoro-3-pyridinyl)-3-((3R)-3-fluoro-1-pyrrolidinyl)spiro[chromeno[2,3-c]pyridine-5,4′-[1,3]thiazol]-2′-amine] | 0.3 | 3 |
| NC1=N[C@@]2(CS1)c1cc(-c3cccnc3F)ccc1Oc1cnc(C3CCOCC3)cc12 [Example 930, (5S)-7-(2-fluoro-3-pyridinyl)-3-(tetrahydro-2H-pyran-4-yl)spiro[chromeno[2,3-c]pyridine-5,4′-[1,3]thiazol]-2′-amine] | 4 | 57 |
| NC1=N[C@@]2(CS1)c1cc(-c3cccnc3F)ccc1Oc1cnc([C@@H]3CCCOC3)cc12 [Example 931, (5S)-7-(2-fluoro-3-pyridinyl)-3-((3S)-tetrahydro-2H-pyran-3-yl)spiro[chromeno[2,3-c]pyridine-5,4′-[1,3]thiazol]-2′-amine] | 21.6 | 347 |
| NC1=N[C@@]2(CS1)c1cc(-c3cccnc3F)ccc1Oc1cnc([C@H]3CCCOC3)cc12 [Example 932, (5S)-7-(2-fluoro-3-pyridinyl)-3-((3R)-tetrahydro-2H-pyran-3-yl)spiro[chromeno[2,3-c]pyridine-5,4′-[1,3]thiazol]-2′-amine] | 16.2 | 208 |
| NC1=N[C@@]2(CS1)c1cc(-c3cccnc3F)ccc1Oc1cnc(N3CCC(F)(F)CC3)cc12 [Example 933, (5S)-3-(4,4-difluoro-1-piperidinyl)-7-(2-fluoro-3-pyridinyl)spiro[chromeno[2,3-c]pyridine-5,4′-[1,3]thiazol]-2′-amine] | 0.5 | 33 |
| Cc1cc(-c2cc3c(cn2)Oc2ccc(-c4cccnc4F)cc2[C@@]32CSC(N)=N2)ccn1 [Example 934, (5S)-7-(2-fluoro-3-pyridinyl)-3-(2-methyl-4-pyridinyl)spiro[chromeno[2,3-c]pyridine-5,4′-[1,3]thiazol]-2′-amine] | 1 | 5 |
| NC1=N[C@@]2(CO1)c1cc(-c3cnccn3)ccc1Oc1c(F)cc(C3CCOCC3)cc12 [Example 935, (4S)-4′-fluoro-7′-(2-pyrazinyl)-2′-(tetrahydro-2H-pyran-4-yl)spiro[1,3-oxazole-4,9′-xanthen]-2-amine] | 6.6 | 82 |
| CC#Cc1cncc(-c2ccc3c(c2)[C@@]2(COC(N)=N2)c2cc(-c4ncccn4)ncc2O3)c1 [Example 936, (5S)-7-(5-(1-propyn-1-yl)-3-pyridinyl)-3-(2-pyrimidinyl)spiro[chromeno[2,3-c]pyridine-5,4′-[1,3]oxazol]-2′-amine] | 3 | 28 |
| COc1cncc(-c2ccc3c(c2)[C@@]2(COC(N)=N2)c2cc(C4CCOCC4)cc(F)c2O3)c1 [Example 937, (4S)-4′-fluoro-7′-(5-methoxy-3-pyridinyl)-2′-(tetrahydro-2H-pyran-4-yl)spiro[1,3-oxazole-4,9′-xanthen]-2-amine] | 1.7 | 28 |
| COc1ccc2c(c1)[C@@]1(COC(N)=N1)c1cc(C3(O)CCOCC3)cc(F)c1O2 [Example 938, 4-((4S)-2-amino-4′-fluoro-7′-methoxyspiro[1,3-oxazole-4,9′-xanthen]-2′-yl)tetrahydro-2H-pyran-4-ol] | 4430 | 3850 |
| COc1ccc2c(c1)[C@@]1(COC(N)=N1)c1cc(C3(F)CCOCC3)cc(F)c1O2 [Example 939, (4S)-4′-fluoro-2′-(4-fluorotetrahydro-2H-pyran-4-yl)-7′-methoxyspiro[1,3-oxazole-4,9′-xanthen]-2-amine] | 1710 | 3560 |
| Cc1ccc(-c2cnc3c(c2)[C@]2(CSC(N)=N2)c2cc(C#CC4(C)COC4)ccc2O3)cn1 [Example 940, (5S)-7-((3-methyl-3-oxetanyl)ethynyl)-3-(6-methyl-3-pyridinyl)spiro[chromeno[2,3-b]pyridine-5,4′-[1,3]thiazol]-2′-amine] | 5.4 | 60 |
| COc1ccc(-c2cnc3c(c2)[C@]2(CSC(N)=N2)c2cc(C#CC4(C)COC4)ccc2O3)cn1 [Example 941, (5S)-3-(6-methoxy-3-pyridinyl)-7-((3-methyl-3-oxetanyl)ethynyl)spiro[chromeno[2,3-b]pyridine-5,4′-[1,3]thiazol]-2′-amine] | 3.8 | 97 |
| CC#Cc1cncc(-c2ccc3c(c2)[C@@]2(COC(N)=N2)c2cc(C#CC4(C)COC4)cnc2O3)c1 [Example 943, (5S)-3-((3-methyl-3-oxetanyl)ethynyl)-7-(5-(1-propyn-1-yl)-3-pyridinyl)spiro[chromeno[2,3-b]pyridine-5,4′-[1,3]oxazol]-2′-amine] | 0.7 | 1 |
| CC#Cc1cncc(-c2ccc3c(c2)[C@@]2(COC(N)=N2)c2cc(-c4cnn(C)c4)cnc2O3)c1 [Example 944, (5S)-3-(1-methyl-1H-pyrazol-4-yl)-7-(5-(1-propyn-1-yl)-3-pyridinyl)spiro[chromeno[2,3-b]pyridine-5,4′-[1,3]oxazol]-2′-amine] | 0.5 | 1 |
| CC#Cc1cncc(-c2ccc3c(c2)[C@@]2(COC(N)=N2)c2cc(C#CC(C)(C)O)cnc2O3)c1 [Example 945, 4-((5S)-2′-amino-7-(5-(1-propyn-1-yl)-3-pyridinyl)spiro[chromeno[2,3-b]pyridine-5,4′-[1,3]oxazol]-3-yl)-2-methyl-3-butyn-2-ol] | 0.8 | 2 |
| CC#Cc1cncc(-c2ccc3c(c2)[C@@]2(COC(N)=N2)c2cc(C4=CCOCC4)cc(F)c2O3)c1 [Example 946, (4S)-2′-(3,6-dihydro-2H-pyran-4-yl)-4′-fluoro-7′-(5-(1-propyn-1-yl)-3-pyridinyl)spiro[1,3-oxazole-4,9′-xanthen]-2-amine] | 0.3 | 4 |
| CC#Cc1cncc(-c2ccc3c(c2)[C@@]2(COC(N)=N2)c2cc(OCC(C)(C)C#N)cc(F)c2O3)c1 [Example 948, 3-(((4S)-2-amino-4′-fluoro-7′-(5-(1-propyn-1-yl)-3-pyridinyl)spiro[1,3-oxazole-4,9′-xanthen]-2′-yl)oxy)-2,2-dimethylpropanenitrile] | 0.4 | 4 |
| CC#Cc1cncc(-c2ccc3c(c2)[C@@]2(COC(N)=N2)c2cc(OCC4(C)COC4)cc(F)c2O3)c1 [Example 949, (4S)-4′-fluoro-2′-((3-methyl-3-oxetanyl)methoxy)-7′-(5-(1-propyn-1-yl)-3-pyridinyl)spiro[1,3-oxazole-4,9′-xanthen]-2-amine] | 0.4 | 3 |
| CC#Cc1cncc(-c2ccc3c(c2)[C@@]2(COC(N)=N2)c2cc(C4=CCCOC4)cnc2O3)c1 [Example 950, (5S)-3-(5,6-dihydro-2H-pyran-3-yl)-7-(5-(1-propyn-1-yl)-3-pyridinyl)spiro[chromeno[2,3-b]pyridine-5,4′-[1,3]oxazol]-2′-amine] | 0.3 | 2 |
| CC#Cc1cncc(-c2ccc3c(c2)[C@@]2(COC(N)=N2)c2cc(N4CCOCC4)cc(F)c2O3)c1 [Example 952, (4S)-4′-fluoro-2′-(4-morpholinyl)-7′-(5-(1-propyn-1-yl)-3-pyridinyl)spiro[1,3-oxazole-4,9′-xanthen]-2-amine] | 0.6 | 4 |
| CC#Cc1cnc(F)c(-c2ccc3c(c2)[C@@]2(COC(N)=N2)c2cc(C4=CCOCC4)cnc2O3)c1 [Example 953, (5S)-3-(3,6-dihydro-2H-pyran-4-yl)-7-(2-fluoro-5-(1-propyn-1-yl)-3-pyridinyl)spiro[chromeno[2,3-b]pyridine-5,4′-[1,3]oxazol]-2′-amine] | 0.3 | 4 |
| CC#Cc1cnc(F)c(-c2ccc3c(c2)[C@@]2(COC(N)=N2)c2cc(-c4cnn(C)c4)cnc2O3)c1 [Example 954, (5S)-7-(2-fluoro-5-(1-propyn-1-yl)-3-pyridinyl)-3-(1-methyl-1H-pyrazol-4-yl)spiro[chromeno[2,3-b]pyridine-5,4′-[1,3]oxazol]-2′-amine] | 0.3 | 3 |
| CC#Cc1cnc(F)c(-c2ccc3c(c2)[C@@]2(COC(N)=N2)c2cc(C#CC4(C)COC4)cnc2O3)c1 [Example 955, (5S)-7-(2-fluoro-5-(1-propyn-1-yl)-3-pyridinyl)-3-((3-methyl-3-oxetanyl)ethynyl)spiro[chromeno[2,3-b]pyridine-5,4′-[1,3]oxazol]-2′-amine] | 0.5 | 2 |
